“And” between values parts separate entries of the source, which are not always exact repeats. Equal values may be shown once.
Key:
Test in all cases: GloSensor cAMP assay, inhibition of constitutive activity
Format in all cases: cell-based
Settings in all cases: for ΔpIC50: no PGE2, pIC50 mutant - pIC50 WT, mean
[1] = target: T1, constitutively active EP4 V72A (Homo sapiens, UniProt P35408, V72A)
T1 construct: The full-length EP2 or EP4 was cloned into the pcDNA3.1 vector (Invitrogen), incorporating an N-terminal FLAG tag; expressed in transfected cells; host or cells: AD293
T1 sequence (P35408 whole entry V72A): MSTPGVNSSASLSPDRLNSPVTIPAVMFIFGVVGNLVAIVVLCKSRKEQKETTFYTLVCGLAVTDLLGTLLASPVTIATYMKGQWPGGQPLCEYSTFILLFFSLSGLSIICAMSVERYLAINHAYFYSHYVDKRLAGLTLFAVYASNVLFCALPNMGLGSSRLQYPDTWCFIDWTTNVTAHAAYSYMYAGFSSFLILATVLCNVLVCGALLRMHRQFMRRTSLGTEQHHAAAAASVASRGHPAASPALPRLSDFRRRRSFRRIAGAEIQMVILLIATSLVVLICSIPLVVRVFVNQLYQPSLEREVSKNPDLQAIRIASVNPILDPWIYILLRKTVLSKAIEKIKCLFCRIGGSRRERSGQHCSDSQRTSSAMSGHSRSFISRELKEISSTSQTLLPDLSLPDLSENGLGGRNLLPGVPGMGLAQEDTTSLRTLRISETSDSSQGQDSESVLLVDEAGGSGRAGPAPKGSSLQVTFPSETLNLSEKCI
Protocol: (§1) The full-length EP2 or EP4 was cloned into the pcDNA3.1 vector (Invitrogen), incorporating an N-terminal FLAG tag. AD293 cells were seeded in six-well plates containing DMEM supplemented with 10% dialyzed FBS 1 day prior to transfection. Following overnight growth, cells were transfected with a 1:1 ratio of receptor construct and GloSensor22F cAMP biosensor (Promega) plasmids.
(§2) Twenty-four hours post-transfection, the cells were transferred to CO2-independent media containing 2% GloSensor cAMP Reagent (Promega) and distributed into 384-well assay plates at a density of 4000 cells per well in 10 μL. […] The plates were then incubated at 37 °C for an additional hour before luminescence measurements were taken using an EnVision plate reader.
(§3) Data analysis was performed using GraphPad Prism software v8.0.1. A nonlinear regression analysis, employing a sigmoidal dose–response model, was conducted to determine the Emax values and half-maximum inhibitory concentrations (IC50) for each compound tested.

[2] = target: T2, constitutively active EP4 S319A (Homo sapiens, UniProt P35408, S319A)
T2 construct: The full-length EP2 or EP4 was cloned into the pcDNA3.1 vector (Invitrogen), incorporating an N-terminal FLAG tag; expressed in transfected cells; host or cells: AD293
T2 sequence (P35408 whole entry S319A): as the sequence (P35408 whole entry V72A) above, with A72V, S319A counted along it
Protocol: as §1, §2, §3

[3] = target: T3, constitutively active EP4 V320A (Homo sapiens, UniProt P35408, V320A)
T3 construct: The full-length EP2 or EP4 was cloned into the pcDNA3.1 vector (Invitrogen), incorporating an N-terminal FLAG tag; expressed in transfected cells; host or cells: AD293
T3 sequence (P35408 whole entry V320A): as the sequence (P35408 whole entry V72A) above, with A72V, V320A counted along it
Protocol: as §1, §2, §3

IC50 [1]: 18.6 nM
remaining activity at 0.1 µM ([1]; 1 h, Grapiprant log([M]) -7.00, EP4-V72A, read-out: % cAMP activity (normalized to WT)): 8.15%
remaining activity at 0.01 µM ([1]; 1 h, Grapiprant log([M]) -8.00, EP4-V72A, read-out: % cAMP activity (normalized to WT)): 28%
remaining activity at 0.001 µM ([1]; 1 h, Grapiprant log([M]) -9.00, EP4-V72A, read-out: % cAMP activity (normalized to WT)): 48.8%
remaining activity at 0.0001 µM ([1]; 1 h, Grapiprant log([M]) -10.00, EP4-V72A, read-out: % cAMP activity (normalized to WT)): 35.6%
remaining activity at 10 pM ([1]; 1 h, Grapiprant log([M]) -11.00, EP4-V72A, read-out: % cAMP activity (normalized to WT)): 41%
remaining activity at 1 pM ([1]; 1 h, Grapiprant log([M]) -12.00, EP4-V72A, read-out: % cAMP activity (normalized to WT)): 39%
Grapiprant cAMP activity (∆pIC50 from EP4 WT), Mean ([1]; V72A, Mean): -0.652
Grapiprant cAMP activity (∆pIC50 from EP4 WT) ([1]; V72A, single experiments 1st-3rd): -0.771 and -0.507 and -0.679
ΔpIC50 [1]: -0.65 ± 0.08
ΔpIC50 ([1]; listed as grapiprant): reduced the potency
IC50 [2]: 16.6 nM
remaining activity at 0.1 µM ([2]; 1 h, Grapiprant log([M]) -7.00, EP4-S319A, read-out: % cAMP activity (normalized to WT)): 23.1%
remaining activity at 0.01 µM ([2]; 1 h, Grapiprant log([M]) -8.00, EP4-S319A, read-out: % cAMP activity (normalized to WT)): 84.7%
remaining activity at 0.001 µM ([2]; 1 h, Grapiprant log([M]) -9.00, EP4-S319A, read-out: % cAMP activity (normalized to WT)): 130%
remaining activity at 1 pM ([2]; 1 h, Grapiprant log([M]) -12.00, EP4-S319A, read-out: % cAMP activity (normalized to WT)): 118%
Grapiprant cAMP activity (∆pIC50 from EP4 WT), Mean ([2]; S319A, Mean): -0.598
ΔpIC50 [2]: -0.60 ± 0.09
ΔpIC50 ([2]; listed as grapiprant): reduced the potency
IC50 [3]: 11.2 nM
remaining activity at 0.1 µM ([3]; 1 h, Grapiprant log([M]) -7.00, EP4-V320A, read-out: % cAMP activity (normalized to WT)): 7.66%
remaining activity at 0.01 µM ([3]; 1 h, Grapiprant log([M]) -8.00, EP4-V320A, read-out: % cAMP activity (normalized to WT)): 35.4%
remaining activity at 0.001 µM ([3]; 1 h, Grapiprant log([M]) -9.00, EP4-V320A, read-out: % cAMP activity (normalized to WT)): 48.1%
remaining activity at 0.0001 µM ([3]; 1 h, Grapiprant log([M]) -10.00, EP4-V320A, read-out: % cAMP activity (normalized to WT)): 61.4%
remaining activity at 10 pM ([3]; 1 h, Grapiprant log([M]) -11.00, EP4-V320A, read-out: % cAMP activity (normalized to WT)): 56.1%
remaining activity at 1 pM ([3]; 1 h, Grapiprant log([M]) -12.00, EP4-V320A, read-out: % cAMP activity (normalized to WT)): 50.8%
Grapiprant cAMP activity (∆pIC50 from EP4 WT), Mean ([3]; V320A, Mean): -0.388
ΔpIC50 [3]: -0.39 ± 0.12
ΔpIC50 ([3]; listed as grapiprant): reduced the potency
SMILES: CCc1nc2c(C)nc(C)cc2n1-c1ccc(CCNC(=O)NS(=O)(=O)c2ccc(C)cc2)cc1 [Grapiprant]

Reference: publication PMC12669672, “Structural insights into selective and dual antagonism of EP2 and EP4 prostaglandin receptors” (The EMBO Journal, 2025)
